# Measurements as given in US20250195457A1, “PHARMACEUTICAL COMPOSITION FOR TREATMENT OF PARKINSON'S DISEASE” (Eisai R&D Management Co., Ltd., priority 2022, published 2025).
# Assays:
# [1] = tested on: Parkinson's disease model cynomolgus monkeys (MPTP); assay: Test Example 1: NDSs after administration of Compound (I) alone in MPTP Parkinson's disease model monkeys; assay type: in vivo; set-up: key to Subgroup 2: Specific motor functions score: specific motor functions subscore, range 0-21; conditions: Istradefylline 60 mg/kg (G5)
# Procedure: (§1) The therapeutic effect of Compound (I) on Parkinson's disease was examined using Parkinson's disease model animals which are produced by administering MPTP (1-methyl-4-phenyl-1,2,3,6-tetrahydropyridine).
# MPTP was administered to male cynomolgus monkeys at the age of 4 to 5 to make Parkinson's disease model cynomolgus monkeys. MPTP was additionally administered to animals with neurologic deficit scores (Neurological deficit scores: NDSs, Schneider et al., “Development of levodopa-induced dyskinesias in parkinsonian monkeys may depend upon rate of symptom onset and/or duration of symptoms”, Brain Res., 2003, 990:38-44.) of less than 25.
# Eight Parkinson's disease model cynomolgus monkeys were randomized into 5 groups of approximately equal mean and variance in terms of Parkinson behavior rating (Tremor score) and body weight. On subsequent cycle 2, cycle 3, cycle 4 and cycle 5, the animals were crossed over to receive the other treatments. A wash out period of one week or more was set between each cycle.
# By the end of the study, each animal had received all the five treatments. Istradefylline is an adenosine A2A receptor antagonist approved as a drug for improving a wearing off phenomenon in Parkinson's disease being treated with a levodopa-containing preparation in the United States of America and Japan (Patent Literature 4). As a vehicle, an aqueous solution containing 0.43% (w/v) methyl cellulose 400, 10% (v/v) dimethyl sulfoxide (DMSO), and 4.5% (w/v) Cremophor (R) was used.
# (§2) Before the administration, and 1 hr., 4 hrs., and 24 hrs. after the administration of the test substances, the NDSs of the monkeys were evaluated. The evaluation items are as follows. The behavior evaluation was performed in a blinded manner. The NDSs of the groups were compared using Steel's test. The p-values of less than 0.05 were considered to be statistically significant.
# Subgroup 1: generalized behaviors (0-32) • 1.1a Appetite • 0: Normal • 1: Up to 30% food left • 2: Up to 65% food left • 3: Greater than 65% food left • 1.1b Response to offered food • 0: Responds to offered food • 1: Inconsistent response to offered food • 2: Little to no interest in offered food • 1.2 Overall activity • 0: Normal • 1: Mild hypokinesia; decrease in spontaneous movement • 2: Moderate hypokinesia; sparse spontaneous movement • 3: Severe hypokinesia; no spontaneous movement; tends to remain in one place • 1.3 Appearance • 0: Normal • 1: Mild but noticeable decrease in self-maintenance • 2: Moderate decrease in self-maintenance • 3: Severe lack of self-maintenance • 1.4 Posture • 0: Normal • 1: Minor flexing or stooping • 2: Moderate flexing or stooping; head and upper body almost parallel to floor of cage • 3: Severe flexing or stooping; head lowered to feet • 1.5 Balance • 0: Normal • 1: Mild loss on arising or movement • 2: Moderate loss on arising or movement; occasionally falls or supports self to keep from falling • 3: Severe loss of balance; falls • 1.6 Climbing • 0: Climbing observed with no delays in initiation/execution • 1: Mild deficit in ability to climb and support weight • 2: Moderate deficit in ability to climb and support weight; tends to ‘slide down’ • 3: Absence of any climbing behavior • 1.7 Tremor • 0: Absent • 1: Slight and intermittent • 2: Slight and persistent or moderate and intermittent • 3: Moderate/severe and persistent • 1.8 Freezing during movement • 0: Absent • 1: Occasional freezing for brief periods • 2: Occasional freezing for prolonged periods or frequent freezing for brief periods • 3: Prolonged and frequent freezing • 1.9 Facial expression • 0: Normal • 1: Mild hypomimia • 2: Moderate hypomimia • 3: Severe, masked fixed faces • 1.10 Defense reaction • 0: Normal • 1: Mild, noticeable reduction in reaction or slowed reaction, but can be provoked to react • 2: Moderate reduction in reaction; can produce facial display but not body reaction • 3: Little to no response
# Subgroup 2: Specific Motor Functions (0-21)
# [2] = tested on: levodopa-induced dyskinesia model cynomolgus monkeys; assay: Test Example 3: dyskinesia score in levodopa-induced dyskinesia model monkeys; assay type: in vivo; set-up: key to Dyskinesia score: dyskinesia score 0 = normal home cage activity to 4 = severe stereotypy; conditions: Istradefylline 60 mg/kg (G4)
# Procedure: A levodopa/carbidopa mixture containing 80 mg/kg of levodopa and 20 mg/kg of carbidopa and having a solution volume of 5 mL/kg was orally administered to Parkinson's disease model cynomolgus monkeys at the age of 6 to 7 prepared in the same way as in Test Example 1 for 8 consecutive days to provide levodopa-induced dyskinesia model cynomolgus monkeys. The induction of dyskinesia was determined based on the “dyskinesia score” in accordance with the following behavior evaluation items in the following test on activity in home cages, and animals having dyskinesia scores of 1 or more on day 7 of the repeated administration of the levodopa/carbidopa mixture were used.
# Home cage activities corresponding to dyskinesia scores • 0: Normal home cage activity (exploring or inactivity, able to drink water, plays with mirror or caging, climbing of the walls). • 1: Some interference with normal activity, however able to climb walls. • 2: Occasional exploration of cage, some stereotypy • 3: Little normal movement, lack of climbing of walls, clear stereotypy • 4: Lack of normal home cage activity, lack of normal exploratory behavior and movement, severe stereotypy
# Seven levodopa-induced dyskinesia model cynomolgus monkeys were randomized into 4 groups of approximately equal mean and variance in terms of body weight. On subsequent cycles 2, 3, and 4, the animals were crossed over to receive the other treatment. A wash out period of one week or more was set between cycles.
# One of the seven animals was excluded from the evaluation of cycles 3 and 4 because it was unable to get up due to dyskinesia on day 8 in cycle 3 of the repeated administration of the levodopa/carbidopa mixture.
# By the end of the study, each animal had received all the four treatments. Each substance was administered 1 hr. after the administration on day 8 of the repeated administration of the levodopa/carbidopa mixture. As a vehicle, an aqueous solution containing 0.43% (w/v) methyl cellulose 400, 10% (v/v) dimethyl sulfoxide (DMSO), and 4.5% (w/v) Cremophor (R) were used.
# as §2, with “dyskinesia scores” for “NDSs”, “animals” for “monkeys”, “evaluated.” for “evaluated. The evaluation items are as follows.”
# [3] = tested on: Parkinson's disease model cynomolgus monkeys (MPTP); assay: Test Example 2: NDSs after combined administration of Compound (I) and levodopa in MPTP Parkinson's disease model monkeys; assay type: in vivo
# Description: as §1
# Parkinson's disease model cynomolgus monkeys were provided in the same way as in Test Example 1, and the therapeutic effect of the combined administration of Compound (I) and levodopa was examined.
# By the end of the study, each animal had received all the five treatments. As a vehicle, an aqueous solution containing 0.43% (w/v) methyl cellulose 400, 10% (v/v) dimethyl sulfoxide (DMSO), and 4.5% (w/v) Cremophor (R) was used.
# Before the administration, and 1 hr., 4 hrs., and 24 hrs. after the administration of the test substances, the NDSs of the monkeys were evaluated. The evaluation items and the evaluation methods are the same as in Test Example 1.
# [4] = tested on: Parkinson's disease mouse model; conditions: pre-onset treatment; cited from earlier work
# [5] = Levodopa 5 mg/kg (G3), 1 hr. after administration
# [6] = Levodopa 5 mg/kg (G3), 4 hrs. after administration
# [7] = Levodopa 5 mg/kg (G3), 24 hrs. after administration
# [8] = Levodopa 5 mg/kg (G3), Pre (before administration)
# [9] = Levodopa 10 mg/kg (G2), 1 hr. after administration
# [10] = Levodopa 10 mg/kg (G2), 4 hrs. after administration
# [11] = Levodopa 10 mg/kg (G2), 24 hrs. after administration
# [12] = Levodopa 10 mg/kg (G2), Pre (before administration)
compound,measurement,setting,value
"CCn1c(=O)c2c(nc(/C=C/c3ccc(OC)c(OC)c3)n2C)n(CC)c1=O [Istradefylline, reference compound]",Subgroup 1: GENERALIZED BEHAVIORS score,[1]; 1 hr. after administration,16.1 ± 0.9
same,Subgroup 2: Specific motor functions score,[1]; 1 hr. after administration,12.3 ± 0.8
same,Total score of NDSs,[1]; 1 hr. after administration,28.4 ± 1.6
same,Tremor score,[1]; 1 hr. after administration,1.8 ± 0.2
same,Subgroup 1: GENERALIZED BEHAVIORS score,[1]; 4 hrs. after administration,14.5 ± 0.6
same,Subgroup 2: Specific motor functions score,[1]; 4 hrs. after administration,10.9 ± 0.5
same,Total score of NDSs,[1]; 4 hrs. after administration,25.4 ± 1.0
same,Tremor score,[1]; 4 hrs. after administration,1.6 ± 0.2
same,Subgroup 1: GENERALIZED BEHAVIORS score,[1]; 24 hrs. after administration,15.9 ± 0.9
same,Subgroup 2: Specific motor functions score,[1]; 24 hrs. after administration,12.1 ± 0.5
same,Total score of NDSs,[1]; 24 hrs. after administration,28.0 ± 1.2
same,Tremor score,[1]; 24 hrs. after administration,1.6 ± 0.2
same,Subgroup 1: GENERALIZED BEHAVIORS score,[1]; Pre (before administration),17.4 ± 0.9
same,Subgroup 2: Specific motor functions score,[1]; Pre (before administration),13.5 ± 0.4
same,Total score of NDSs,[1]; Pre (before administration),30.9 ± 1.3
same,Tremor score,[1]; Pre (before administration),2.1 ± 0.1
same,Dyskinesia score,[2]; 1 hr. after administration,1.8 ± 0.2
same,Dyskinesia score,[2]; 4 hrs. after administration,1.8 ± 0.2
same,Dyskinesia score,[2]; 24 hrs. after administration,1.8 ± 0.2
same,Dyskinesia score,[2]; Pre (before administration),1.7 ± 0.2
"N[C@@H](Cc1ccc(O)c(O)c1)C(=O)O [Levodopa, levodopa]",Subgroup 1: GENERALIZED BEHAVIORS score,[3]; [5],14.0 ± 0.7
same,Subgroup 2: Specific motor functions score,[3]; [5],11.0 ± 0.9
same,Total score of NDSs,[3]; [5],25.0 ± 1.6
same,Tremor score,[3]; [5],1.5 ± 0.2
same,Subgroup 1: GENERALIZED BEHAVIORS score,[3]; [6],15.0 ± 0.9
same,Subgroup 2: Specific motor functions score,[3]; [6],11.9 ± 0.8
same,Total score of NDSs,[3]; [6],26.9 ± 1.7
same,Tremor score,[3]; [6],1.8 ± 0.2
same,Subgroup 1: GENERALIZED BEHAVIORS score,[3]; [7],17.0 ± 0.7
same,Subgroup 2: Specific motor functions score,[3]; [7],13.6 ± 0.5
same,Total score of NDSs,[3]; [7],30.6 ± 1.1
same,Tremor score,[3]; [7],2.0 ± 0.0
same,Subgroup 1: GENERALIZED BEHAVIORS score,[3]; [8],17.4 ± 0.7
same,Subgroup 2: Specific motor functions score,[3]; [8],14.3 ± 0.5
same,Total score of NDSs,[3]; [8],31.6 ± 1.1
same,Tremor score,[3]; [8],2.0 ± 0.0
same,Subgroup 1: GENERALIZED BEHAVIORS score,[3]; [9],13.5 ± 0.9
same,Subgroup 2: Specific motor functions score,[3]; [9],10.9 ± 0.5
same,Total score of NDSs,[3]; [9],24.4 ± 1.2
same,Tremor score,[3]; [9],1.4 ± 0.2
same,Subgroup 1: GENERALIZED BEHAVIORS score,[3]; [10],15.0 ± 0.7
same,Subgroup 2: Specific motor functions score,[3]; [10],12.3 ± 0.5
same,Total score of NDSs,[3]; [10],27.3 ± 1.0
same,Tremor score,[3]; [10],1.4 ± 0.2
same,Subgroup 1: GENERALIZED BEHAVIORS score,[3]; [11],17.6 ± 0.7
same,Subgroup 2: Specific motor functions score,[3]; [11],14.0 ± 0.5
same,Total score of NDSs,[3]; [11],31.6 ± 1.0
same,Tremor score,[3]; [11],2.0 ± 0.0
same,Subgroup 1: GENERALIZED BEHAVIORS score,[3]; [12],17.8 ± 0.6
same,Subgroup 2: Specific motor functions score,[3]; [12],13.9 ± 0.4
same,Total score of NDSs,[3]; [12],31.6 ± 0.8
same,Tremor score,[3]; [12],2.0 ± 0.0
Cc1ccsc1C(=CCCN1CCC[C@@H](C(=O)O)C1)c1sccc1C [tiagabine],effect on nigrostriatal axis and motor dysfunction,[4],partially protects nigrostriatal axis to ameliorate motor dysfunction
